{
  "source": "ChEMBL document CHEMBL2034960",
  "about": "“Bryonolic acid transcriptional control of anti-inflammatory and antioxidant genes in macrophages in vitro and in vivo” (J Nat Prod, 2012)",
  "tested_on": "RAW264.7",
  "experiment": "Cytotoxicity against mouse RAW264.7 cells at 100 uM after 8 hrs by MTT assay",
  "type": "cell-based",
  "details": "raw264.7, 8 h",
  "data": [
    {"compound": "C=C(C)[C@@H]1CC[C@]2(C(=O)O)CC[C@]3(C)[C@H](CC[C@@H]4[C@@]5(C)CC[C@H](O)C(C)(C)[C@@H]5CC[C@]43C)[C@@H]12", "note": "[BETULINIC ACID]", "values": [
      {"measurement": "Activity", "value": "Toxic"}
    ]}
  ]
}
